Results taken from US9309222B2, “Phenyl linked quinolinyl modulators of RORγt” (Janssen Pharmaceutica NV, priority 2012, dated 2016).
Where a name gives a salt, the structure may show the parent alone.

Legend:
human RORγt LBD = biological target: T1, human RORγt LBD (Homo sapiens, UniProt P51449); test: RORγt reporter assay (GAL4-RORγt LBD luciferase in HEK293T cells); format: cell-based; conditions: for IC50: HEK293T cells, 24 hours compound treatment; for inhibition at 6 µM: HEK-293T, read-out: RORγt reporter Assay, % inhibition @ 6 μM, HEK293T cells, 6 μM compound
T1 construct: expressed in transfected cells
T1 sequence (P51449 258-518): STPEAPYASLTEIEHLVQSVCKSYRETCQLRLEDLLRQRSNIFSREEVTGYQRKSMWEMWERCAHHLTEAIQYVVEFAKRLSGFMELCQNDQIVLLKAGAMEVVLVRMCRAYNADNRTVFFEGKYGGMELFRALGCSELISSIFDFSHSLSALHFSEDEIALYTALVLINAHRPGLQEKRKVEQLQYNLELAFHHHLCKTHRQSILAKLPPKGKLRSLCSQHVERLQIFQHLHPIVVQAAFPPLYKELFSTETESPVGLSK
Excerpt: A reporter assay was used to test functional activity of RORγt modulatory compounds on transcriptional activation driven by the RORγt LBD. Cells used in the assay were co-transfected with two constructs. The first construct, pBIND-RORγt LBD, contained the wild type human RORγt LBD fused to the DNA binding domain of the GAL4 protein. The second construct, pGL4.31 (Promega Cat no. C935A), contained multiple GAL4 responsive DNA elements upstream of firefly luciferase. […] The mutant construct was called pBIND-RORγt-AF2.
The pBIND vector contains the GAL4 DNA Binding Domain (GAL4 DBD) and the renilla luciferase gene under control of the SV40 promoter. Renilla luciferase expression serves as a control for transfection efficiency and cell viability.
The reporter assay was performed by transiently transfecting HEK293T cells with 5 ng of pBIND-RORγt LBD or pBIND-RORγt LBD-AF2 and 5 μg pGL4.31 (Promega Cat no. C935A) using Fugene 6 (Invitrogen Cat no. E2691) at a 1:6 ratio of DNA:Fugene 6 in a T-75 flask in which cells were at least 80% confluent. Twenty four hours after bulk transfection, cells were plated into 96-well plates at 50,000 cells/well in phenol-red free DMEM containing 5% Lipid Reduced FCS and Pen/Strep. Six hours after plating, cells were treated with compounds for 24 hours. Media was removed and cells were lysed with 50 μL 1× Glo Lysis Buffer (Promega). Dual Glo Luciferase Reagent (50 μL/well) was then added and firefly luciferase luminescence was read on an Envision after a ten minute incubation. Finally, Stop and Glo reagent (50 μL/well) was added and renilla luciferase luminescence was read on an Envision after a ten minute incubation. To calculate the effect of compounds on RORγt activity, the ratio of firefly to renilla luciferase was determined and plotted against compound concentration. Agonist compounds increase RORγt-driven luciferase expression, and antagonist or inverse agonist compounds decrease luciferase expression.

[1] = biological target: T2, human RORγt ligand binding domain (RORγt LBD) (Homo sapiens, UniProt P51449); test: RORγt ThermoFluor assay (thermal shift, ligand binding affinity); conditions: estimated from concentration response of thermal shift
T2 construct: His-tag (N); TurboTEV protease cleavage site (ENLYFQG) (N); made in house; host or cells: E. coli (pHIS1, modified pET vector)
T2 sequence (P51449 with tags, fused parts or gaps): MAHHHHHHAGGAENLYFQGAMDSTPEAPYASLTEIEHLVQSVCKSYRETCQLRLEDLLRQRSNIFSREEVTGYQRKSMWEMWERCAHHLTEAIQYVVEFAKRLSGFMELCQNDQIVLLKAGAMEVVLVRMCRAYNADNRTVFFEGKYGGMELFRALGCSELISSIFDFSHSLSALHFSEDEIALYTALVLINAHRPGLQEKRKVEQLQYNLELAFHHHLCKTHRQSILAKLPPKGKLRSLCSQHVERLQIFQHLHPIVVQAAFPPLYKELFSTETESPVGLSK
Experimental: This approach is applicable to a wide variety of systems, and rigorous in theoretical interpretation through quantitation of equilibrium binding constants (KD).
The shift in the melting point described as a ΔTm is proportional to the concentration and affinity of the ligand.
RORγt ThermoFluor® Assay Construct
Protein and compound solutions are dispensed into black 384-well polypropylene PCR microplates (Abgene) and overlayed with silicone oil (1 μL Fluka, type DC 200) to prevent evaporation.
Fluorescence was measured by continuous illumination with UV light (Hamamatsu LC6) supplied via fiber optic and filtered through a band-pass filter (380-400 nm; >6 OD cutoff). Fluorescence emission of the entire 384-well plate was detected by measuring light intensity using a CCD camera (Sensys, Roper Scientific) filtered to detect 500±25 nm, resulting in simultaneous and independent readings of all 384 wells. Images were collected at each temperature, and the sum of the pixel intensity in a given area of the assay plate was recorded versus temperature. Reference wells contained RORγt without compounds, and the assay conditions were as follows: • 0.065 mg/mL RORγt • 60 μM 1,8-ANS • 100 mM Hepes, pH 7.0 • 10 mM NaCl • 2.5 mM GSH • 0.002% Tween-20
Project compounds were arranged in a pre-dosed mother plate (Greiner Bio-one) wherein compounds are serially diluted in 100% DMSO by 1:2 from a high concentration of 10 mM over 12 columns within a series (column 12 is a reference well containing DMSO, no compound).
The compounds were robotically dispensed directly into assay plates (1×=[…]) using a Hummingbird capillary liquid handling instrument (Digilab). Following compound dispense, protein and dye in buffer was added to achieve the final assay volume of 3 μL, followed by 1 μL of silicone oil.

| SMILES | IC50 (human RORγt LBD) | inhibition at 6 µM (human RORγt LBD) | Kd [1] |
| --- | --- | --- | --- |
| CN(C)c1ccc(C(O)(c2ccc3nc(Cl)c(-c4ccccc4)c(Cl)c3c2)c2cncn2C)cn1 (stereo not drawn) [Example 11, (2,4-Dichloro-3-phenylquinolin-6-yl)[6-(dimethylamino)pyridin-3-yl](1-methyl-1H-imidazol-5-yl)methanol•TFA] | 4200 nM | 75% | 1100 nM |
| CN1CCN(c2nc3ccc(C(O)(c4ccncc4)c4cncn4C)cc3c(Cl)c2-c2ccccc2)CC1 (stereo not drawn) [Example 19, [4-Chloro-2-(4-methylpiperazin-1-yl)-3-phenylquinolin-6-yl](1-methyl-1H-imidazol-5-yl)pyridin-4-ylmethanol•TFA] | > 6000 nM | 13% | 9100 nM |
| COCOc1ccc(C(O)(c2cccnc2)c2ccc3nc(Cl)c(-c4ccccc4)c(Cl)c3c2)cc1 (stereo not drawn) [Example 23, (2,4-Dichloro-3-phenylquinolin-6-yl)[4-(methoxymethoxy)phenyl]pyridin-3-ylmethanol] | 800 nM | 89% | 230 nM |
| OC(c1ccncc1)(c1ccc2nc(Cl)c(-c3ccccc3)c(Cl)c2c1)c1ccccn1 (stereo not drawn) [Example 27, (2,4-Dichloro-3-phenylquinolin-6-yl)(pyridin-2-yl)pyridin-4-ylmethanol•TFA] | 4200 nM | 75% | 8300 nM |
| OC(c1cccnc1)(c1ccc2nc(Cl)c(-c3ccccc3)c(Cl)c2c1)c1ccccc1Cl (stereo not drawn) [Example 28, (2-Chlorophenyl)(2,4-dichloro-3-phenylquinolin-6-yl)pyridin-3-ylmethanol•TFA] | ~200 nM | 99% | 230 nM |
| Cn1cncc1C(N)(c1ccc2nc(Cl)c(-c3ccccc3)c(Cl)c2c1)c1ccccn1 (stereo not drawn) [Example 31, 1-(2,4-Dichloro-3-phenylquinolin-6-yl)-1-(1-methyl-1H-imidazol-5-yl)-1-pyridin-2-ylmethanamine•HCl] | 2100 nM | 67% | 5600 nM |
| CN(C)c1c(-c2ccccc2)c(Cl)nc2ccc(C(O)(c3ccc(Cl)cc3)c3cccnc3)cc12 (stereo not drawn) [Example 33, [2-Chloro-4-(dimethylamino)-3-phenylquinolin-6-yl](4-chlorophenyl)pyridin-3-ylmethanol•TFA] | 2000 nM | 78% | 3300 nM |
| CN(C)c1c(-c2ccccc2)c(Cl)nc2ccc(C(O)(c3ccc(F)cc3)c3cccnc3)cc12 (stereo not drawn) [Example 39, [2-Chloro-4-(dimethylamino)-3-phenylquinolin-6-yl](4-fluorophenyl)pyridin-3-ylmethanol•TFA] | 1600 nM | 86% | 2500 nM |
| CN(C)c1c(-c2ccccc2)c(Cl)nc2ccc(C(O)(c3cccnc3)c3cccc(Cl)c3)cc12 (stereo not drawn) [Example 42, [2-Chloro-4-(dimethylamino)-3-phenylquinolin-6-yl](3-chlorophenyl)pyridin-3-ylmethanol•TFA] | ~2000 nM | 91% | 1400 nM |
| CN(C)c1nc2ccc(C(O)(c3cccnc3)c3ccccn3)cc2c(Cl)c1-c1ccccc1 (stereo not drawn) [Example 43, [4-Chloro-2-(dimethylamino)-3-phenylquinolin-6-yl](pyridin-2-yl)pyridin-3-ylmethanol•TFA] | 1100 nM | 99% | 1600 nM |
| CN(C)c1c(-c2ccccc2)c(Cl)nc2ccc(C(O)(c3cccnc3)c3ccccc3Cl)cc12 (stereo not drawn) [Example 45, [2-Chloro-4-(dimethylamino)-3-phenylquinolin-6-yl](2-chlorophenyl)pyridin-3-ylmethanol•TFA] | 1600 nM | 75% | 2900 nM |
| Cc1cc(C(O)(c2ccc3nc(Cl)c(-c4ccccc4)c(Cl)c3c2)c2nccn2C)cc(Cl)n1 (stereo not drawn) [Example 46, (2-Chloro-6-methylpyridin-4-yl)(2,4-dichloro-3-phenylquinolin-6-yl)(1-methyl-1H-imidazol-2-yl)methanol] | 2000 nM | 94% | 4000 nM |
| Cn1cncc1C(O)(c1cccnc1)c1ccc2ncc(-c3ccccc3)c(Cl)c2c1 (stereo not drawn) [Example 51, (4-Chloro-3-phenylquinolin-6-yl)(1-methyl-1H-imidazol-5-yl)pyridin-3-ylmethanol•TFA] | ~4000 nM | 75% | 1800 nM |
| OC(c1cccnc1)(c1cccc(Cl)c1)c1ccc2ncc(-c3ccccc3)c(Cl)c2c1 (stereo not drawn) [Example 52, (3-Chlorophenyl)(4-chloro-3-phenylquinolin-6-yl)pyridin-3-ylmethanol] | ~3000 nM | 80% | 1300 nM |
| Cn1cncc1C(O)(c1ccncc1)c1ccc2ncc(-c3ccccc3)c(Cl)c2c1 (stereo not drawn) [Example 53, (4-Chloro-3-phenylquinolin-6-yl)(1-methyl-1H-imidazol-5-yl)pyridin-4-ylmethanol•TFA] | ~2000 nM | 61% | 950 nM |
| COc1ccc(C(O)(c2cccnc2)c2ccc3nc(Cl)c(-c4ccccc4)c(Cl)c3c2)cc1 (stereo not drawn) [Example 55, (2,4-Dichloro-3-phenylquinolin-6-yl)(4-methoxyphenyl)(pyridin-3-yl)methanol] | 820 nM | 92% | 330 nM |
| COc1cccc(C(O)(c2cccnc2)c2ccc3ncc(-c4ccccc4)c(Cl)c3c2)c1 (stereo not drawn) [Example 58, (4-Chloro-3-phenylquinolin-6-yl)(3-methoxyphenyl)pyridin-3-ylmethanol] | ~6000 nM | 40% | 2200 nM |
| COc1ccc(C(O)(c2cccnc2)c2ccc3ncc(-c4ccccc4)c(Cl)c3c2)cc1 (stereo not drawn) [Example 59, (4-Chloro-3-phenylquinolin-6-yl)(4-methoxyphenyl)pyridin-3-ylmethanol] | ~6000 nM | 37% | 4400 nM |
| OC(c1ccc(Cl)nc1)(c1cccc(Cl)c1)c1ccc2ncc(-c3ccccc3)c(Cl)c2c1 (stereo not drawn) [Example 60, (3-Chlorophenyl)(4-chloro-3-phenylquinolin-6-yl)(6-chloropyridin-3-yl)methanol] | ~1000 nM | 86% | 1300 nM |
| OC(c1ccc(Cl)nc1)(c1cccc(F)c1)c1ccc2ncc(-c3ccccc3)c(Cl)c2c1 (stereo not drawn) [Example 61, (4-Chloro-3-phenylquinolin-6-yl)(6-chloropyridin-3-yl)(3-fluorophenyl)methanol] | 2000 nM | 80% | 1800 nM |
